From ChEMBL document CHEMBL3044930, “Mannich base derivatives of 1,3,4-oxadiazole: synthesis and screening against Entamoeba histolytica” (Med Chem Res, 2013)

How the values were obtained:
Entamoeba histolytica = assay: Antiamoebic activity against Entamoeba histolytica HM-1:IMSS after 72 hr by eosin stain-based spectrophotometric analysis; format: functional, organism-based
MCF7 = assay: Cytotoxicity against Homo sapiens (human) MCF7 cells after 48 hr by MTT assay; format: cell-based; settings: MCF7, 48 h

Row | SMILES | IC50 (Entamoeba histolytica) | IC50 (MCF7)
1 | S=c1oc(-c2ccncc2)nn1CN1CCN(c2ccccn2)CC1 | 2820 nM | –
2 | FC(F)(F)c1ccccc1N1CCN(Cn2nc(-c3ccncc3)oc2=S)CC1 | 2870 nM | –
3 | S=c1oc(-c2ccncc2)nn1CN1CCN(Cc2ccccc2)CC1 | 3400 nM | –
4 | CN1CCN(Cn2nc(-c3ccncc3)oc2=S)CC1 | 5110 nM | –
5 | S=c1oc(-c2ccncc2)nn1CN1CCN(c2ccccc2)CC1 | 3470 nM | –
6 | S=c1oc(-c2ccncc2)nn1CN1CCN(Cc2ccc3c(c2)OCO3)CC1 | 3620 nM | –

Now those with a lower IC50 (Entamoeba histolytica), led by results:

Row | IC50 (Entamoeba histolytica) | SMILES | IC50 (MCF7)
7 | 327 nM | CCN1CCN(Cn2nc(-c3ccncc3)oc2=S)CC1 | > 250000 nM
8 | 2570 nM | S=c1oc(-c2ccncc2)nn1CN1CCN(c2cccc(Cl)c2)CC1 | –
9 | 245 nM | Fc1ccc(N2CCN(Cn3nc(-c4ccncc4)oc3=S)CC2)cc1 | > 250000 nM
10 | 1060 nM | COc1ccccc1N1CCN(Cn2nc(-c3ccncc3)oc2=S)CC1 | > 250000 nM
